Experimental data published in PubChem BioAssay (NCI).
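Cells were grown in 96-well plates and exposed to each compound for 48 hours at five concentrations; endpoints were interpolated linearly between bracketing concentrations, or set to the highest concentration if not reached. TGI is the concentration that stops growth completely.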

Experiments:
Assay in all cases: NCI tumour cell line growth inhibition, 48 h
786-0 renal = tested on: 786-0 renal
A498 renal = tested on: A498 renal
A549 NSCLC = tested on: A549 NSCLC
ACHN renal = tested on: ACHN renal
BT-549 breast = tested on: BT-549 breast
CAKI-1 renal = tested on: CAKI-1 renal
CCRF-CEM leukemia = tested on: CCRF-CEM leukemia
COLO 205 colon = tested on: COLO 205 colon
DU-145 prostate = tested on: DU-145 prostate
EKVX NSCLC = tested on: EKVX NSCLC
HCC-2998 colon = tested on: HCC-2998 colon
HCT-116 colon = tested on: HCT-116 colon
HCT-15 colon = tested on: HCT-15 colon
HL-60(TB) leukemia = tested on: HL-60(TB) leukemia
HOP-62 NSCLC = tested on: HOP-62 NSCLC
HOP-92 NSCLC = tested on: HOP-92 NSCLC
HS 578T breast = tested on: HS 578T breast
HT29 colon = tested on: HT29 colon
IGROV1 ovarian = tested on: IGROV1 ovarian
K-562 leukemia = tested on: K-562 leukemia
KM12 colon = tested on: KM12 colon
LOX IMVI melanoma = tested on: LOX IMVI melanoma
M14 melanoma = tested on: M14 melanoma
MALME-3M melanoma = tested on: MALME-3M melanoma
MCF7 breast = tested on: MCF7 breast
MDA-MB-231 breast = tested on: MDA-MB-231 breast
MDA-MB-435 = tested on: MDA-MB-435
MDA-N = tested on: MDA-N
NCI-H226 lung = tested on: NCI-H226 lung
NCI-H23 lung = tested on: NCI-H23 lung
NCI-H460 lung = tested on: NCI-H460 lung
NCI-H522 lung = tested on: NCI-H522 lung
NCI/ADR-RES ovarian = tested on: NCI/ADR-RES ovarian
OVCAR-3 ovarian = tested on: OVCAR-3 ovarian
OVCAR-4 ovarian = tested on: OVCAR-4 ovarian
OVCAR-5 ovarian = tested on: OVCAR-5 ovarian
OVCAR-8 ovarian = tested on: OVCAR-8 ovarian
PC-3 prostate = tested on: PC-3 prostate
RPMI-8226 leukemia = tested on: RPMI-8226 leukemia
RXF 393 renal = tested on: RXF 393 renal
SF-268 CNS = tested on: SF-268 CNS
SF-295 CNS = tested on: SF-295 CNS
SK-MEL-2 melanoma = tested on: SK-MEL-2 melanoma
SK-MEL-28 melanoma = tested on: SK-MEL-28 melanoma
SK-MEL-5 melanoma = tested on: SK-MEL-5 melanoma
SK-OV-3 ovarian = tested on: SK-OV-3 ovarian
SN12C renal = tested on: SN12C renal
SNB-19 CNS = tested on: SNB-19 CNS
SNB-75 CNS = tested on: SNB-75 CNS
SR leukemia = tested on: SR leukemia
SW-620 colon = tested on: SW-620 colon
T-47D breast = tested on: T-47D breast
TK-10 renal = tested on: TK-10 renal
U251 CNS = tested on: U251 CNS
UACC-257 melanoma = tested on: UACC-257 melanoma
UACC-62 melanoma = tested on: UACC-62 melanoma
UO-31 renal = tested on: UO-31 renal
MOLT-4 leukemia = tested on: MOLT-4 leukemia
SF-539 CNS = tested on: SF-539 CNS

`O=S(=O)(c1ccc2ccccc2c1)N1CCN(S(=O)(=O)c2ccc3ccccc3c2)CC1` showed a TGI (786-0 renal) greater than 100 µM, a TGI (A498 renal) greater than 100 µM and a TGI (A549 NSCLC) greater than 100 µM. It also gave a TGI (ACHN renal) greater than 100 µM, a TGI (BT-549 breast) greater than 100 µM and a TGI (CAKI-1 renal) greater than 100 µM. For the same compound, the TGI (CCRF-CEM leukemia) was greater than 100 µM, the TGI (COLO 205 colon) was greater than 100 µM and the TGI (DU-145 prostate) was greater than 100 µM. For the same compound, the TGI (EKVX NSCLC) was greater than 100 µM, the TGI (HCC-2998 colon) was greater than 100 µM and the TGI (HCT-116 colon) was greater than 100 µM. It also gave a TGI (HCT-15 colon) greater than 100 µM, a TGI (HL-60(TB) leukemia) greater than 100 µM and a TGI (HOP-62 NSCLC) greater than 100 µM. The TGI (HOP-92 NSCLC) was greater than 100 µM, the TGI (HS 578T breast) was greater than 100 µM and the TGI (HT29 colon) was greater than 100 µM. The TGI (IGROV1 ovarian) was greater than 100 µM, the TGI (K-562 leukemia) was greater than 100 µM and the TGI (KM12 colon) was greater than 100 µM. It also gave a TGI (LOX IMVI melanoma) greater than 100 µM, a TGI (M14 melanoma) greater than 100 µM and a TGI (MALME-3M melanoma) greater than 100 µM. For the same compound, the TGI (MCF7 breast) was greater than 100 µM, the TGI (MDA-MB-231 breast) was greater than 100 µM and the TGI (MDA-MB-435) was greater than 100 µM. For the same compound, the TGI (MDA-N) was greater than 100 µM, the TGI (NCI-H226 lung) was greater than 100 µM and the TGI (NCI-H23 lung) was greater than 100 µM. It also gave a TGI (NCI-H460 lung) greater than 100 µM, a TGI (NCI-H522 lung) greater than 100 µM and a TGI (NCI/ADR-RES ovarian) greater than 100 µM. For the same compound, the TGI (OVCAR-3 ovarian) was greater than 100 µM, the TGI (OVCAR-4 ovarian) was greater than 100 µM and the TGI (OVCAR-5 ovarian) was greater than 100 µM. It also gave a TGI (OVCAR-8 ovarian) greater than 100 µM, a TGI (PC-3 prostate) greater than 100 µM and a TGI (RPMI-8226 leukemia) greater than 100 µM. For the same compound, the TGI (RXF 393 renal) was greater than 100 µM, the TGI (SF-268 CNS) was greater than 100 µM and the TGI (SF-295 CNS) was greater than 100 µM. The TGI (SK-MEL-2 melanoma) was greater than 100 µM, the TGI (SK-MEL-28 melanoma) was greater than 100 µM and the TGI (SK-MEL-5 melanoma) was greater than 100 µM. For the same compound, the TGI (SK-OV-3 ovarian) was greater than 100 µM, the TGI (SN12C renal) was greater than 100 µM and the TGI (SNB-19 CNS) was greater than 100 µM. For the same compound, the TGI (SNB-75 CNS) was 60 µM, the TGI (SR leukemia) was greater than 100 µM and the TGI (SW-620 colon) was greater than 100 µM. The TGI (T-47D breast) was greater than 100 µM, the TGI (TK-10 renal) was greater than 100 µM and the TGI (U251 CNS) was greater than 100 µM. For the same compound, the TGI (UACC-257 melanoma) was greater than 100 µM, the TGI (UACC-62 melanoma) was greater than 100 µM and the TGI (UO-31 renal) was greater than 100 µM.
With `Nc1ncc(Sc2ccccc2C(=O)O)s1` the TGI (786-0 renal) was greater than 100 µM, the TGI (A498 renal) was greater than 100 µM and the TGI (A549 NSCLC) was greater than 100 µM. It also gave a TGI (ACHN renal) greater than 100 µM, a TGI (BT-549 breast) greater than 100 µM and a TGI (CAKI-1 renal) greater than 100 µM. It also gave a TGI (CCRF-CEM leukemia) greater than 100 µM, a TGI (COLO 205 colon) greater than 100 µM and a TGI (DU-145 prostate) greater than 100 µM. It also gave a TGI (EKVX NSCLC) greater than 100 µM, a TGI (HCT-116 colon) greater than 100 µM and a TGI (HCT-15 colon) greater than 100 µM. It also gave a TGI (HL-60(TB) leukemia) greater than 100 µM, a TGI (HOP-62 NSCLC) greater than 100 µM and a TGI (HOP-92 NSCLC) greater than 100 µM. For the same compound, the TGI (HS 578T breast) was greater than 100 µM, the TGI (HT29 colon) was greater than 100 µM and the TGI (IGROV1 ovarian) was greater than 100 µM. The TGI (K-562 leukemia) was greater than 100 µM, the TGI (KM12 colon) was greater than 100 µM and the TGI (LOX IMVI melanoma) was greater than 100 µM. It also gave a TGI (M14 melanoma) greater than 100 µM, a TGI (MCF7 breast) greater than 100 µM and a TGI (MDA-MB-231 breast) greater than 100 µM. For the same compound, the TGI (MDA-MB-435) was greater than 100 µM, the TGI (MDA-N) was greater than 100 µM and the TGI (MOLT-4 leukemia) was greater than 100 µM. It also gave a TGI (NCI-H226 lung) greater than 100 µM, a TGI (NCI-H23 lung) greater than 100 µM and a TGI (NCI-H460 lung) greater than 100 µM. The TGI (NCI/ADR-RES ovarian) was greater than 100 µM, the TGI (OVCAR-3 ovarian) was greater than 100 µM and the TGI (OVCAR-5 ovarian) was greater than 100 µM. It also gave a TGI (OVCAR-8 ovarian) greater than 100 µM, a TGI (PC-3 prostate) greater than 100 µM and a TGI (RPMI-8226 leukemia) greater than 100 µM. It also gave a TGI (RXF 393 renal) greater than 100 µM, a TGI (SF-268 CNS) greater than 100 µM and a TGI (SF-295 CNS) greater than 100 µM. The TGI (SF-539 CNS) was greater than 100 µM, the TGI (SK-MEL-2 melanoma) was greater than 100 µM and the TGI (SK-MEL-28 melanoma) was greater than 100 µM. It also gave a TGI (SK-MEL-5 melanoma) greater than 100 µM, a TGI (SN12C renal) greater than 100 µM and a TGI (SNB-19 CNS) greater than 100 µM. For the same compound, the TGI (SNB-75 CNS) was greater than 100 µM, the TGI (SR leukemia) was greater than 100 µM and the TGI (SW-620 colon) was greater than 100 µM. It also gave a TGI (T-47D breast) greater than 100 µM, a TGI (TK-10 renal) greater than 100 µM and a TGI (U251 CNS) greater than 100 µM. For the same compound, the TGI (UACC-257 melanoma) was greater than 100 µM, the TGI (UACC-62 melanoma) was greater than 100 µM and the TGI (UO-31 renal) was greater than 100 µM.
